Source: US11413278B2, “Compounds and methods for promoting stress resistance” (priority 2015, dated 2022)
Read-outs that look alike come from different tables or passages of the source.

Tests used:
WI-38 cells [1] = conditions: for No H2O2 stress treatment, at 10 uM (fold change): normalized ATP measurement; for Assay 1: H2O2-resistant: YES/NO, if NO, possibly due to repeated freezing/thawing of stocks
WI-38 cells [2] = test: Propidium iodide (PI) cell-death imaging upon H2O2 stress; format: cell-based, human; conditions: for Assay 7: H2O2-resistant, at 10 uM, validated by propidium iodide (PI) cell-death imaging: w/H2O2, 3 hrs/4 hrs/5 hrs, YES/NO; for cytotoxicity at 10 µM: Homo sapiens, WI-38
WI-38 cells [3] = test: Long-term effects on cell viability (5 days, ATP; morphology, PI imaging); format: cell-based; conditions: 10 μM; for Luminescence signal for ATP measurement, day-1 Average / Luminescence signal for ATP measurement, day-2 Average / Luminescence signal for ATP measurement, day-3 Average / Luminescence signal for ATP measurement, day-4 Average / Luminescence signal for ATP measurement, day-5 Average / viability at 10 µM: Batch 1; for Luminescence signal for ATP measurement, day-1 Average / Luminescence signal for ATP measurement, day-2 Average / Luminescence signal for ATP measurement, day-3 Average / Luminescence signal for ATP measurement, day-4 Average / Luminescence signal for ATP measurement, day-5 Average: n = 6, day-0 luminescence = 320956 ± 24708; for viability at 10 µM: Homo sapiens, WI-38, 120 h, DMSO ctrl = 100.0%, read-out: ATP luminescence by day-5 normalized; for Luminescence signal for ATP measurement, day-5 Average / viability at 10 µM: day-5; for O = Potential toxicity / Q = Potential toxicity: human, 5 days;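 for Luminescence signal for ATP measurement, day-2 Average: compounds at 10 µM with ATP read daily over 5 days of treatment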;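 for Luminescence signal for ATP measurement, day-3 Average: compounds at 10 µM with ATP read daily over 5 days of treatment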;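 for Luminescence signal for ATP measurement, day-4 Average: compounds at 10 µM with ATP read daily over 5 days of treatment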;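 for Luminescence signal for ATP measurement, day-5 Average: compounds at 10 µM with ATP read daily over 5 days of treatment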
WI-38 cells [4] = conditions: for PI cell-death imaging without H2O2 (indicating potential toxicity): Assay 8(k), without H2O2, at 10 uM; for PI-positive dead cells under normal conditions: control 0.4±0.2%; for Percentage of propidium iodide-positive dead cells (no H2O2 stress treatment), at 10 uM: negative control 0.41% ± 0.23%
Protocol: WI-38 cells were seeded on 384-well plates for 24 hrs and then incubated with small molecules for 24 hrs. […] Images were collected on an INCell Analyzer 2000 (GE) and analyzed with the Developer software.

WI-38 cells [5] = test: MMS resistance assay; format: cell-based, human; conditions: for fold induction at 10 µM: Homo sapiens, 12 h, normalized ATP measurement; for Assay 3: MMS-resistant / Assay 5: Triple resistant: YES/NO; for Assay 3: MMS-resistant: * indicates partial; for Assay 5: Triple resistant: H2O2, cadmium and MMS; for Triple resistant: H2O2, CdCl2 and MMS
Summary of the method: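 Resistance to CdCl2 or MMS stress (12 h exposure) was scored in WI-38 fibroblasts pretreated with compound at 0.25–20 μM final, five doses, technical triplicates. MMS plates had compound added 24 h before MMS, after a shift to serum-free DMEM+2% BSA. Significance came from a global variance t-test over two independent runs.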

mTOR = mTOR inhibition (RPS6 phosphorylation status), In-Cell Western; format: cell-based, human
Summary of the method: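 Read-out is In-Cell Western near-infrared imaging of phospho-RPS6 (Ser-235/236) against total RPS6, using overnight 4° C primary staining and DyLight 680/800 secondaries. Compounds were given to WI-38 cells for 24 hrs at three doses: 5, 10 and 20 μM.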

[6] = WI-38 cells, 10 μM, (*) = compromised ability to protect cells from H2O2, could be due to stability issue
[7] = asterisks indicate the loss of the ability to protect cells from H2O2 over time
[8] = read-out: Est. ED50, dose response 0.6-20 μM, H2O2-resistance
[9] = H2O2 3 hrs, 10 uM, n = 6, negative control 5.44% ± 0.79%, read-out: Percentage of propidium iodide-positive dead cells (under H2O2 stress treatment), 3 hrs
[10] = H2O2 4 hrs, 10 uM, n = 6, negative control 16.81% ± 1.42%, read-out: Percentage of propidium iodide-positive dead cells (under H2O2 stress treatment), 4 hrs
[11] = H2O2 5 hrs, 10 uM, n = 6, negative control 22.50% ± 1.53%, read-out: Percentage of propidium iodide-positive dead cells (under H2O2 stress treatment), 5 hrs
[12] = pre-treatment at 10 uM, 3.5 hours of H2O2, DMSO control 27.4% ± 6.5%, */**/*** = reduced by one/two/three standard deviations, read-out: Percentage of propidium iodide-positive dead cells (under H2O2 stress treatment), at 10 uM
[13] = Exp. 1, WI-38 cells, read-out: Exp. 1, under MMS stress treatment, at 10 uM (fold change)
[14] = Exp. 2, WI-38 cells, read-out: Exp. 2, under MMS stress treatment, at 10 uM (fold change)
[15] = score in summary of 38 core set hits
[16] = derived from dose response curves, 0.6-20 uM, H2O2-resistance of WI-38 cells

Row | Structure (SMILES) | H2O2-resistant (WI-38 cells [1]; [6]) | No H2O2 stress treatment, at 10 uM (fold change) (WI-38 cells [1]; WI-38 cells) | H2O2-resistant (WI-38 cells [1]; [7]) | EC50 (WI-38 cells [1]; [8]) [µM] | Assay 7: H2O2-resistant, at 10 uM, validated by propidium iodide (PI) cell-death imaging (WI-38 cells [2]; 10 uM) | cytotoxicity at 10 µM (WI-38 cells [2]; [9]) [%] | cytotoxicity at 10 µM (WI-38 cells [2]; [12]) [%] | Luminescence signal for ATP measurement, day-1 Average (WI-38 cells [3]) | Luminescence signal for ATP measurement, day-2 Average (WI-38 cells [3]) | Luminescence signal for ATP measurement, day-3 Average (WI-38 cells [3]) | Luminescence signal for ATP measurement, day-4 Average (WI-38 cells [3]) | Luminescence signal for ATP measurement, day-5 Average (WI-38 cells [3]) | viability at 10 µM (WI-38 cells [3]) [%] | O = Potential toxicity (WI-38 cells [3]) | Q = Potential toxicity (WI-38 cells [3]) | Percentage of propidium iodide-positive dead cells (no H2O2 stress treatment), at 10 uM (WI-38 cells [4]) | fold induction at 10 µM (WI-38 cells [5]; [13]) | fold induction at 10 µM (WI-38 cells [5]; [14]) | B = MMS resistant (WI-38 cells [5]; [15]) | B = MMS resistant (WI-38 cells [5]; summary score) | further results
1 | CCCN1C/C(=C\c2ccc(F)cc2)C(=O)/C(=C/c2ccc(F)cc2)C1 [O15] | YES (*) | 0.98 | YES (*) | 20 | YES | 4.04 | 6.8 | 426828 | 601153 | 634740 | 904970 | 761533 | 74.2 | 1 | 0 | 3.76% ± 0.68%, | 0.16 | 0.38 | 0 | 0 | Assay 1: H2O2-resistant (WI-38 cells [1]): YES; cytotoxicity at 10 µM (WI-38 cells [2]; [10]): 4.4%; cytotoxicity at 10 µM (WI-38 cells [2]; [11]): 6.06%; PI cell-death imaging without H2O2 (indicating potential toxicity) (WI-38 cells [4]): YES; PI-positive dead cells under normal conditions (WI-38 cells [4]; WI-38, no H2O2): 3.8%±0.7%; D = Triple resistant (WI-38 cells [5]; summary score): 0; G = mTOR down-regulation (mTOR; 2-point score): 0; G = mTOR down-regulation (mTOR; summary score): 0
2 | [O-][n+]1onc2c3nsnc3c(Br)cc21 [O17] | YES | 1.06 | YES | 8.5 | YES | 0.8 | 6.6 | 507143 | 697351 | 849445 | 1073975 | 1070851 | 104 | 0 | 0 | 0.56% ± 0.25%, | 0.86 | 5.33 | 0 | 0 | EC50 (WI-38 cells [1]; [16]): 8.5 µM; cytotoxicity at 10 µM (WI-38 cells [2]; [10]): 2.83%; D = Triple resistant (WI-38 cells [5]; summary score): 0; G = mTOR down-regulation (mTOR; 2-point score): 0; G = mTOR down-regulation (mTOR; summary score): 0
3 | Cc1cc(C)c(C(=O)/C=C/c2ccccc2F)c(O)n1 [O18] | YES | 0.99 | YES | 9.8 | YES | 3.66 | 4.5 | 453443 | 639628 | 693776 | 825623 | 760275 | 74 | 0 | 0 | 0.36% ± 0.16%, | 1.11 | 1.48 | 0 | 1 | Assay 1: H2O2-resistant (WI-38 cells [1]): YES; EC50 (WI-38 cells [1]; [16]): 9.8 µM; cytotoxicity at 10 µM (WI-38 cells [2]; [10]): 3.06%; cytotoxicity at 10 µM (WI-38 cells [2]; [11]): 4.16%; Assay 3: MMS-resistant (WI-38 cells [5]): YES; Assay 5: Triple resistant (WI-38 cells [5]): YES; D = Triple resistant (WI-38 cells [5]; summary score): 2; G = mTOR down-regulation (mTOR; 2-point score): 0; G = mTOR down-regulation (mTOR; summary score): 0
4 | COC(=O)CCc1sc2c(c1[N+](=O)[O-])NC(=O)CCC2 [O20] | YES | 1.12 | YES | 12.9 | YES | 3.28 | 9.4 | 544305 | 770055 | 888893 | 997113 | 926888 | 90.3 | 1 | 0 | 0.73% ± 0.25%, | 2.17 | 1.46 | 0 | 1 | Assay 1: H2O2-resistant (WI-38 cells [1]): YES; EC50 (WI-38 cells [1]; [16]): 12.9 µM; PI cell-death imaging without H2O2 (indicating potential toxicity) (WI-38 cells [4]): YES; PI-positive dead cells under normal conditions (WI-38 cells [4]; WI-38, no H2O2): 0.7%±0.3%; Assay 3: MMS-resistant (WI-38 cells [5]): YES; Assay 5: Triple resistant (WI-38 cells [5]): YES; D = Triple resistant (WI-38 cells [5]; summary score): 2; G = mTOR down-regulation (mTOR; 2-point score): 0; G = mTOR down-regulation (mTOR; summary score): 0
5 | COc1ccc(/C=C2\SC(=N)N(c3nccs3)C2=O)cc1 [O21] | YES | 0.92 | YES | 18.1 | YES | 2.05 | 7.8 | 460366 | 542268 | 557236 | 677875 | 550651 | 53.6 | 1 | 1 | 1.09% ± 0.39%, | 0.74 | 0.94 | 0 | 0 | EC50 (WI-38 cells [1]; [16]): 18.1 µM; PI cell-death imaging without H2O2 (indicating potential toxicity) (WI-38 cells [4]): YES; Percentage of propidium iodide-positive (dead) cells under normal conditions (qualitative) (WI-38 cells [4]; WI-38, no H2O2): increased the percentage; PI-positive dead cells under normal conditions (WI-38 cells [4]; WI-38, no H2O2): 1.1±0.4%; D = Triple resistant (WI-38 cells [5]; summary score): 0; G = mTOR down-regulation (mTOR; 2-point score): 0; G = mTOR down-regulation (mTOR; summary score): 0
6 | CC(C)(C)c1ccc(OCC(=O)Nc2ccc3c4c(cccc24)C(=O)NC3=O)cc1 [O22] | YES | 0.96 | YES | 20 | YES | 4.84 | 4.1 | 435891 | 566145 | 690403 | 840178 | 805461 | 78.4 | 0 | 0 | 0.37% ± 0.14%, | 3.22 | 14.8 | 1 | 1 | Assay 1: H2O2-resistant (WI-38 cells [1]): YES; MMS-resistant (WI-38 cells [5]): YES; Multiplex resistance to cadmium, MMS and H2O2 (WI-38 cells [5]; 0.25 μM to 20 μM, repurchased molecules): reproducibly conferred multiplex resistance; Triple resistant (WI-38 cells [5]): YES; MMS-resistant (WI-38 cells [5]; WI-38 cells, 10 μM): YES; Triple resistant (WI-38 cells [5]; WI-38 cells, 10 μM): YES; Assay 3: MMS-resistant (WI-38 cells [5]): YES; Assay 5: Triple resistant (WI-38 cells [5]): YES; D = Triple resistant (WI-38 cells [5]; summary score): 2; G = mTOR down-regulation (mTOR; 2-point score): 0; G = mTOR down-regulation (mTOR; summary score): 0
